Values quoted from earlier work, collected in US20170342372A1, “CELL CULTURE MEDIA” (MERCK PATENT GMBH, priority 2014, published 2017).

Conditions: water / aqueous solvents

solubility in water (in words) | SMILES
moderate solubility | CC(C)C[C@H](N)C(=O)O [leucine]
moderate solubility | CC[C@H](C)[C@H](N)C(=O)O [isoleucine]
moderate solubility | CC(C)[C@H](N)C(=O)O [valine]
poorly soluble | N[C@@H](CSSC[C@H](N)C(=O)O)C(=O)O [cystine]
